78 compounds from PubChem BioAssay AID743396 (Broad Institute, 2014) can be followed below.

Each structure is given as a SMILES string. The source made the active and inactive calls.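 How the source made its calls: active means fitted curve reaches a 40% rise in fluorescent cells at or below the top valid dose; inactive means opposite-direction effect, or the rest.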

One assay in a line: autofluorescent compounds in non-GFP fibroblasts, dose response, artefact control for X-chromosome reactivation project, imaging, mTEFS fibroblasts, cherry-pick (AID 743396).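 Further: raw share of Hoechst-counted cells scored GFP positive without control normalization.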 The conditions noted are these: mTEFS fibroblasts autofluorescence, GFP-channel imaging, 3 days; at 19.5 µM (top of the series).
With `O=C(c1cccc2ccccc12)C1CCCN(Cc2ccon2)C1` (stereo not drawn), the % fluorescent cells increase is 0% (inactive).

Still in this assay, the particulars now being: mTEFS fibroblasts autofluorescence, GFP-channel imaging, 3 days; at 19.5 µM (top of the series); cells pretreated with 5-aza-dC.
For `Cc1cc(/C=C2\SC(=S)N(Cc3ccco3)C2=O)c(C)n1-c1ccccc1`, the % fluorescent cells increase was 0.981% (inactive).
`CC[N+]1=C(C)C(C)(C)c2cc(C)ccc21`: the % fluorescent cells increase was 0.089% (inactive).
Take `O=C(/C=C/Sc1ccc(C(F)(F)F)cn1)c1ccccc1`: the % fluorescent cells increase was -0.007% (inactive).
In the case of `O=C(O)/C=C/C(=O)Nc1ccc(-n2nccc2C(F)(F)F)cc1`, the % fluorescent cells increase was 1.85% (inactive).
Take `Cc1cc(=O)[nH]c(N/N=C/c2cc(C)n(CC(F)(F)F)c2C)n1`: the % fluorescent cells increase is 0% (inactive).
Take `COc1ccccc1-c1ccc(/C=N/O)o1`: the % fluorescent cells increase was 0% (inactive).
As for `CC(C)(C)C1CCNC(=O)CC1` (stereo not drawn), the % fluorescent cells increase was -0.007% (inactive).
`Cc1ccc(S(=O)(=O)N2CCOCC2)cc1C(=O)OCC(=O)NC1CCS(=O)(=O)C1` (stereo not drawn): the % fluorescent cells increase is 0.086% (inactive).
On the same count and under the same terms, the value for `COc1ccc(S(=O)(=O)Nc2ccc3c(c2)C(=O)N([C@@H](C)CO)C[C@H](C)[C@H](CN(C)C(=O)CCCN(C)C)OCCCC[C@H](C)O3)cc1` was 0.13% (inactive); that for `COc1ccccc1C#Cc1ccc2c(c1)O[C@H](CN(C)Cc1cncnc1)[C@@H](C)CN([C@H](C)CO)S2(=O)=O` was 0% (inactive); that for `Cc1ccc(Cn2ccsc2=NC(=O)CCl)cc1` was 0% (inactive).
Regarding `Cc1ccc(S(=O)(=O)N(C)c2ccc(C)c([N+](=O)[O-])c2)cc1`, the % fluorescent cells increase was 0.055% (inactive).
On to `Cc1ccc(-c2nc3ccc(Br)cn3c2Cc2ccccc2C(F)(F)F)cc1`, for which the % fluorescent cells increase was 0.042% (inactive).
The same measure, in the same setting: the value for `CNc1ccc([N+](=O)[O-])cc1C(=O)O` was -0.007% (inactive); that for `Cc1cc(=O)[nH]c(N/N=C/c2cc(C)n(-c3ccccc3)c2C)n1` was 0% (inactive).
For `CSc1ccc(CNCC2CCCO2)cc1` (stereo not drawn), the % fluorescent cells increase was 0.293% (inactive).
On to `N#CC(C#N)=C1C=CC=CN1/C(=C\c1ccco1)C(=O)c1ccc(Br)cc1`, for which the % fluorescent cells increase was 0% (inactive).
With `Oc1c(C(c2ccccc2Cl)N2CCCC2)ccc2cccnc12` (stereo not drawn), the % fluorescent cells increase was 0% (inactive).
The same measure, in the same setting: the value for `COc1ccc(C2C(=O)c3ccccc3C2=Nc2ccc(Br)cc2)cc1` (stereo not drawn) was 0.033% (inactive); that for `O=C(Nc1c(Cl)cccc1Cl)Oc1cccc2cccnc12` was 6.89% (inactive).
Still for that read-out and setting: the value for `CC1CCN(C(=O)Cn2nnc(-c3ccccc3)n2)CC1` was 0.009% (inactive); that for `CN(C)C=NC(=O)c1cc(C(=O)c2ccc(Cl)cc2Cl)c[nH]1` was 0.032% (inactive).
Regarding `CO[C@H]1CN(C)C(=O)c2ccc(NC(=O)Cc3ccccc3)cc2OC[C@@H](C)N(C)C[C@H]1C`, the % fluorescent cells increase was 0% (inactive).
As for `COc1cccc(CNC(=O)CNC(=S)N(Cc2ccccc2)Cc2ccccc2F)c1`, the % fluorescent cells increase was 0.054% (inactive).
Consider `CCc1ccc(N2CC(C(=O)Nc3cc(C)on3)CC2=O)cc1` (stereo not drawn), for which the % fluorescent cells increase is 0.015% (inactive).
As for `COc1ccccc1C(=O)Nc1nnc(S(=O)(=O)N2CCCCCC2)s1`, the % fluorescent cells increase was 0.055% (inactive).
As to `Cc1ccc(-c2csc(NC(=O)c3cccc([N+](=O)[O-])c3C(=O)O)n2)cc1`, the % fluorescent cells increase was 0% (inactive).
For `CN(C)CCN(Cc1ccc(Cl)cc1)c1ccccn1`, the % fluorescent cells increase was -0.004% (inactive).
As for `CCn1c(Cl)c(C=O)s/c1=N\S(=O)(=O)c1ccccc1`, the % fluorescent cells increase was 0% (inactive).
On to `CCOC(=O)Cc1c(C)[nH]n(-c2ccccc2)c1=O`, for which the % fluorescent cells increase is 0.015% (inactive).
Still for that read-out and setting: the value for `Cc1nc(NC(=O)C(Cl)Cl)sc1C(=O)N(C)C` was 0% (inactive); that for `O=C(c1ccc(S(=O)(=O)c2ccc(Cl)cc2)cc1)N1CCOCC1` was 0.948% (inactive).
Take `CCOCCCNC(=O)/C(C#N)=C/c1ccc([N+](=O)[O-])o1`: the % fluorescent cells increase is 9.9% (inactive).
Turning to `Cc1ccc2[nH]c(C)c(/C=C/c3cc[n+](C)cc3)c2c1`, the % fluorescent cells increase is 8.78% (inactive).
Regarding `CNC(=O)C[C@H]1C(=O)N(c2ccccc2)C[C@@H]1C`, the % fluorescent cells increase is 0% (inactive).
Take `CCOC(=O)C1CCN(c2c(NCc3ccc(C(=O)NC4CCCC4)cc3)c(=O)c2=O)CC1`: the % fluorescent cells increase is 0% (inactive).
On to `COc1ccccc1/C=C/C(=O)OCC(=O)NC(=O)NC1CCCC1`, for which the % fluorescent cells increase is 0% (inactive).
With `CC(C)c1cc(C(=O)N/N=C/c2cccnc2)cs1`, the % fluorescent cells increase was -0.004% (inactive).
On to `Cc1ccnc(NS(=O)(=O)c2ccc3c(c2)CCO3)c1`, for which the % fluorescent cells increase is 0.175% (inactive).
Regarding `COc1ccc2c3c(n(C)c2c1)[C@H](CO)N(C(=O)CN1CCOCC1)CC31CCN(C(=O)Nc2cccc(F)c2)CC1`, the % fluorescent cells increase is 0% (inactive).
Still for that read-out and setting: the value for `CCC1Oc2ccc(C)cc2N(CC(=O)N2CCCC2)C1=O` (stereo not drawn) was 0.001% (inactive); that for `CCCOc1ccc(Oc2nc(-c3ccncc3)nc3ccccc23)cc1` was 0.007% (inactive); that for `CC(NC(=O)c1ccccc1)C(=O)N/N=C/c1ccccc1` (stereo not drawn) was 0% (inactive).
Consider `COc1ccc(CN(C)C[C@H]2OCCCC[C@@H](C)Oc3ccc(NC(=O)Nc4ccc(F)cc4)cc3C(=O)N([C@@H](C)CO)C[C@H]2C)cc1`, for which the % fluorescent cells increase was 0% (inactive).
Regarding `COc1ccc(NC(=O)CCc2ccccc2)cc1S(=O)(=O)N1CCCCC1`, the % fluorescent cells increase is 0.183% (inactive).
As for `CCCCC(CCC(=O)Nc1ccn(-c2ccccc2)n1)C(=O)O` (stereo not drawn), the % fluorescent cells increase was -0.003% (inactive).
Consider `C=C(C)c1cccc(C(C)(C)NC(=O)Nc2nnc(C(C)C)s2)c1`, for which the % fluorescent cells increase was 0% (inactive).
As for `C[C@H](CO)N1C[C@H](C)[C@H](CN(C)S(=O)(=O)c2ccccc2)Oc2ccc(NS(=O)(=O)c3ccc(Cl)cc3)cc2C1=O`, the % fluorescent cells increase is 0.016% (inactive).
The same measure, in the same setting: the value for `COc1ccc2c3c(n(C)c2c1)[C@H](CO)N(Cc1ccccc1F)CC31CCN(CC2CC2)CC1` was -0.126% (inactive); that for `C[C@H](CO)N1C[C@H](C)[C@H](CN(C)C(=O)Nc2ccc(F)cc2)Oc2ncc(C#Cc3cccc(F)c3)cc2C1=O` was -0.166% (inactive).
Turning to `COC(=O)Nc1ccc(S(=O)(=O)N2CCCC(C(=O)N3CCN(C)CC3)C2)cc1` (stereo not drawn), the % fluorescent cells increase was 0% (inactive).
In the case of `Nc1nc(Nc2ccc(Cl)cc2)c(NC=O)c(=O)[nH]1`, the % fluorescent cells increase was 18.8% (inactive).
In the case of `C/C(=N\NC(=O)c1ccccc1Cl)c1ccccn1`, the % fluorescent cells increase is 0% (inactive).
The same measure, in the same setting: the value for `Cc1ccc(S(=O)(=O)N2CCN(C(=O)COC(=O)c3ccccc3OC(F)F)CC2)c(C)c1` was 0% (inactive); that for `O=C1C=CC(=O)C(CNc2ccc(C(=O)OCc3ccccc3)cc2)=C1` was 0% (inactive); that for `Cc1c(Nc2cc(Cl)c3nonc3c2[N+](=O)[O-])c(=O)n(-c2ccccc2)n1C` was -0.007% (inactive).
On the same count and under the same terms, the value for `Cn1c2ccccc2c2cnn(CC(=O)Nc3ccccc3Br)c(=O)c21` was -0.007% (inactive); that for `CCC(C(=O)Nc1cc(OC)c(NC(=O)c2ccccc2)cc1OC)c1ccccc1` (stereo not drawn) was 0.022% (inactive).
As for `Cc1ccc(C(=O)NCc2ccccn2)cc1NC1=NC2CS(=O)(=O)CC2S1` (stereo not drawn), the % fluorescent cells increase is 0.061% (inactive).
In the case of `CCOC(=O)c1ccc(NC(=O)C2CCC(CNc3c(N4CCOCC4)c(=O)c3=O)CC2)cc1` (stereo not drawn), the % fluorescent cells increase was 0.105% (inactive).
Same read-out and setting: the value for `O=C(COC(=O)c1cc(=O)[nH]c(=O)[nH]1)Nc1cccc(S(=O)(=O)N2CCCCC2)c1` was 0% (inactive); that for `Nc1ccccc1Nc1cc(-c2ccccc2)[nH]n1` was 2.52% (inactive).
As to `CCOC(=O)c1cnc(-c2ccc(C(F)(F)F)cn2)[nH]c1=O`, the % fluorescent cells increase was 11.4% (inactive).
`Cc1ccc(-c2ccc3c(c2)O[C@@H](CN(C)Cc2ccncc2)[C@@H](C)CN([C@@H](C)CO)S3(=O)=O)cc1`: the % fluorescent cells increase is 0.037% (inactive).
As to `ClC1CCCCC1n1nnc2ccccc21` (stereo not drawn), the % fluorescent cells increase is 0.006% (inactive).
For `NNC(=O)c1sc(-c2ccc(Cl)cc2)cc1N`, the % fluorescent cells increase is 0.125% (inactive).
As for `COC(=O)c1sc(-c2ccc(C(C)(C)C)cc2)cc1NC(=O)c1ccccc1C(=O)O`, the % fluorescent cells increase is 0.032% (inactive).
With `CCOC(=O)Nc1ccc2nc(-c3cscn3)[nH]c2c1`, the % fluorescent cells increase is 0.274% (inactive).
Turning to `Cc1ccc(O)c(N=Nc2ccc(S(=O)(=O)N3CCCC3)cc2)c1`, the % fluorescent cells increase was 0% (inactive).
As to `CCc1ccc(NS(=O)(=O)c2ccc3[nH]cc(C(=O)N4CCc5ccccc54)c(=O)c3c2)cc1`, the % fluorescent cells increase is 0% (inactive).
On the same count and under the same terms, the value for `CN(Cc1nccn1C)C(=O)CC1C(=O)NCCN1CC(c1ccccc1)c1ccccc1` (stereo not drawn) was 0.889% (inactive).
On the same count and under the same terms, the value for `Cn1cc(/C=C/c2cc[n+](C)cc2)c2cc(Cl)ccc21` was 6.85% (inactive); that for `COc1ccc2nc(SCC(=O)Nc3ccccc3OC)[nH]c2c1` was 0.385% (inactive).
On the same count and under the same terms, the value for `O=C(O)c1ccccc1NS(=O)(=O)c1ccc(N/N=C/c2cccc(O)c2O)c([N+](=O)[O-])c1` was 12.8% (inactive); that for `CC(=O)Nc1sc(C)c(C)c1C(=O)OCC(=O)Nc1cc(S(C)(=O)=O)ccc1Cl` was 0.274% (inactive).
For `N=c1ccn2c(n1)OC1C(O)C(CO)OC12` (stereo not drawn), the % fluorescent cells increase was -0.006% (inactive).
For the compound `CC1=NN(c2ccc(C)c(C)c2)C(=O)/C1=C\C=C\c1ccc([N+](=O)[O-])o1`, the % fluorescent cells increase was -0.007% (inactive).
